# Test results as given in patent publication US20150306269A1, “UPSTREAM HYDROGEN PEROXIDE […]” (The Vincit Company, LLC, priority 2014, published 2015).
# How the values were obtained:
# bacteria [1] = experiment: Egg shell testing: total plate count of inoculated egg shells after exposure to treated air; type: cell-based; conditions: half egg shells inoculated in broth with about seven log bacteria; 10 minutes exposure; nebulized 3% hydrogen peroxide; swab plated on Tryptic Soy Agar, 24 hours
# Description: In preliminary testing, twelve store-bought fresh eggs were prepared by blowing out the contents and cutting the egg shells in half. Twenty-four half shells were inoculated by submersion in a broth solution containing about a seven log concentration bacteria. Egg shells were removed and allowed to air dry. […] The final six shells were designated the control group and were exposed only to untreated air circulated though the sanitation system. The twenty-four half shells were allowed to be exposed to their respective situation for a period of 10 minutes.
# Immediately following treatment, approximately 1 square inch swab samples were taken from the surface of each egg shell then serially diluted and plated on Tryptic Soy Agar and incubated for 24 hours to obtain a total plate count.
# bacteria [2] = experiment: Chicken wings: total plate count of inoculated chicken wing skin after exposure to treated air; type: cell-based; conditions: chicken wings inoculated in Tryptic Soy Broth with about seven log bacteria; maximum over 10, 30, 45 and 60 seconds treatment; nebulized 3% hydrogen peroxide; Tryptic Soy Agar, 24 hours
# Description: Similar testing was performed on chicken wings. Twenty-four store-bought chicken wings were prepared by submersing them in a Tryptic Soy Broth broth solution containing about a seven log concentration of bacteria. The wings were removed and allowed to air dry. The wings were separated into groups of six, one group designated to be exposed to air running through the air sanitation system containing only nebulized 3% hydrogen peroxide, another group exposed to UV light-generated radicals, and the last group exposed to both 3% H2O2 and UV radicals. The final six wings were designated the control group and were exposed only to untreated air circulated though the sanitation system.
# Immediately following treatment at times of 10 seconds, 30 seconds, 45 seconds and 60 seconds, approximately 1 square inch of skin on each wing was swabbed with moistened sample sponges. The sponges were stomached in phosphate buffer solution for 2 minutes, then the buffer solution was serially diluted and plated on Tryptic Soy Agar and incubated for 24 hours to obtain a total plate count.
smiles,measurement,setting,value
"OO [H2O2, hydrogen peroxide]",log10 reduction (total plate count),bacteria [1],1.5 log10
same,maximum log10 reduction (total plate count),bacteria [2],0.9 log10
